Source: paper PMC10648927, “Examining the activity of cefepime-taniborbactam against Burkholderia cepacia complex and Burkholderia gladioli isolated from cystic fibrosis patients in the United States” (Antimicrobial Agents and Chemotherapy, 2023)
Converted amounts (≈) assume the structure as drawn.

Tests used:
Set-up in all cases: agar dilution MIC, growth inhibition of clinical Burkholderia isolates
B. multivorans AU19564 = system: T1, B. multivorans AU19564; experiment: microbe, parasite or virus in culture; conditions: Burkholderia multivorans, AU19564
T1 construct: AU19564
Source text: (§1) We evaluated the activity of cefepime-taniborbactam against a panel of 140 Bcc clinical isolates (i.e., species ambifaria, arboris, cenocepacia, cepacia, contaminans, diffusa, dolosa, multivorans, pseudomultivorans, pyrrocinia, seminalis, stabilis, ubonensis, and vietnamiensis) and 10 B. gladioli from the Burkholderia cepacia Research Laboratory and Repository (University of Michigan) ([22], [25], [31]) (Supplementary Material, Tables S1 and S2). K. pneumoniae ATCC 700603 carrying bla SHV-18 and K. pneumoniae ATCC BAA-1705 harboring bla KPC strains were used as controls for β-lactam and β-lactamase inhibitor integrity; all controls tested within the anticipated quality control ranges (Table S3). Minimum inhibitory concentration (MIC) results were interpreted using Clinical Laboratory Standards Institute (CLSI) breakpoints, where available ([32]). […] An alternative cefepime-taniborbactam provisional susceptible breakpoint of ≤16 µg/mL is supported by in vivo efficacy data from neutropenic murine infection models (thigh, complicated urinary tract, and lung) ([15] [–] [17]) and data from safety and pharmacokinetics studies in human volunteers ([33], [34]). The cefepime-taniborbactam antimicrobial activity was compared to cefepime, meropenem, meropenem-vaborbactam, and levofloxacin, to data published for first-line agents (e.g., ceftazidime and trimethoprim-sulfamethoxazole) and to those recommended by the CLSI for clinical testing (e.g., minocycline) against the Bcc and B. gladioli panel ([22], [32]). Of note, the MICs of all these agents were determined by the agar dilution method, which alongside broth microdilution, are recommended by the CLSI to assess the antimicrobial susceptibility of Bcc isolates ([32]).

B. cenocepacia AU9710 = system: T2, B. cenocepacia AU9710; experiment: microbe, parasite or virus in culture; conditions: Burkholderia cenocepacia, AU9710
T2 construct: AU9710
Source text: as §1

B. cenocepacia AU21083 = system: T3, B. cenocepacia AU21083; experiment: microbe, parasite or virus in culture; conditions: Burkholderia cenocepacia, AU21083
T3 construct: AU21083
Source text: as §1

B. seminalis AU14842 = system: T4, B. seminalis AU14842; experiment: organism not typed
T4 construct: AU14842
Source text: as §1

B. cepacia AU23707 = system: T5, B. cepacia AU23707; experiment: microbe, parasite or virus in culture; conditions: Burkholderia cepacia, AU23707
T5 construct: AU23707
Source text: as §1

B. gladioli AU0032 = system: T6, B. gladioli AU0032; experiment: organism not typed
T6 construct: AU0032
Source text: as §1

B. multivorans AU10897 = system: T7, B. multivorans AU10897; experiment: microbe, parasite or virus in culture; conditions: Burkholderia multivorans, AU10897
T7 construct: AU10897
Source text: as §1

B. dolosa AU12872 = system: T8, B. dolosa AU12872; experiment: microbe, parasite or virus in culture; conditions: Burkholderia dolosa, AU12872
T8 construct: AU12872
Source text: as §1

B. multivorans AU11772 = system: T9, B. multivorans AU11772; experiment: microbe, parasite or virus in culture; conditions: Burkholderia multivorans, AU11772
T9 construct: AU11772
Source text: as §1

B. vietnamiensis AU5003 = system: T10, B. vietnamiensis AU5003; experiment: microbe, parasite or virus in culture; conditions: Burkholderia vietnamiensis, AU5003
T10 construct: AU5003
Source text: as §1

B. cenocepacia AU9215 = system: T11, B. cenocepacia AU9215; experiment: microbe, parasite or virus in culture; conditions: Burkholderia cenocepacia, AU9215
T11 construct: AU9215
Source text: as §1

B. cenocepacia AU0133 = system: T12, B. cenocepacia AU0133; experiment: microbe, parasite or virus in culture; conditions: Burkholderia cenocepacia, AU0133
T12 construct: AU0133
Source text: as §1

B. multivorans AU10398 = system: T13, B. multivorans AU10398; experiment: microbe, parasite or virus in culture; conditions: Burkholderia multivorans, AU10398
T13 construct: AU10398
Source text: as §1

B. ambifaria AU19862 = system: T14, B. ambifaria AU19862; experiment: microbe, parasite or virus in culture; conditions: Burkholderia ambifaria, AU19862
T14 construct: AU19862
Source text: as §1

B. cenocepacia AU19530 = system: T15, B. cenocepacia AU19530; experiment: microbe, parasite or virus in culture; conditions: Burkholderia cenocepacia, AU19530
T15 construct: AU19530
Source text: as §1

[1] = system: T16, Burkholderia cepacia complex Bcc Indeterminate AU12560; experiment: microbe, parasite or virus in culture; conditions: Burkholderia cepacia
T16 construct: AU12560
Source text: as §1

B. cenocepacia AU9292 = system: T17, B. cenocepacia AU9292; experiment: microbe, parasite or virus in culture; conditions: Burkholderia cenocepacia, AU9292
T17 construct: AU9292
Source text: as §1

B. cepacia AU0329 = system: T18, B. cepacia AU0329; experiment: microbe, parasite or virus in culture; conditions: Burkholderia cepacia, AU0329
T18 construct: AU0329
Source text: as §1

B. vietnamiensis AU26096 = system: T19, B. vietnamiensis AU26096; experiment: microbe, parasite or virus in culture; conditions: Burkholderia vietnamiensis, AU26096
T19 construct: AU26096
Source text: as §1

B. cenocepacia AU14381 = system: T20, B. cenocepacia AU14381; experiment: microbe, parasite or virus in culture; conditions: Burkholderia cenocepacia, AU14381
T20 construct: AU14381
Source text: as §1

B. multivorans AU10047 = system: T21, B. multivorans AU10047; experiment: microbe, parasite or virus in culture; conditions: Burkholderia multivorans, AU10047
T21 construct: AU10047
Source text: as §1

B. multivorans AU19659 = system: T22, B. multivorans AU19659; experiment: microbe, parasite or virus in culture; conditions: Burkholderia multivorans, AU19659
T22 construct: AU19659
Source text: as §1

Row | SMILES | MIC (B. multivorans AU19564) | MIC (B. cenocepacia AU9710) | MIC (B. cenocepacia AU21083) | MIC (B. seminalis AU14842) | MIC (B. cepacia AU23707) | MIC (B. gladioli AU0032) | MIC (B. multivorans AU10897) | MIC (B. dolosa AU12872) | MIC (B. multivorans AU11772) | MIC (B. vietnamiensis AU5003) | MIC (B. cenocepacia AU9215) | MIC (B. cenocepacia AU0133) | MIC (B. multivorans AU10398) | MIC (B. ambifaria AU19862) | MIC (B. cenocepacia AU19530) | MIC [1] | MIC (B. cenocepacia AU9292) | MIC (B. cepacia AU0329) | MIC (B. vietnamiensis AU26096) | MIC (B. cenocepacia AU14381) | other results
1 | CO/N=C(\C(=O)N[C@@H]1C(=O)N2C(C(=O)[O-])=C(C[N+]3(C)CCCC3)CS[C@H]12)c1csc(N)n1 [cefepime] | 16 µg/mL (≈ 33.3 µM) | 16 µg/mL (≈ 33.3 µM) | 16 µg/mL (≈ 33.3 µM) | 16 µg/mL (≈ 33.3 µM) | 32 µg/mL (≈ 66.6 µM) | > 32 µg/mL | 32 µg/mL (≈ 66.6 µM) | > 32 µg/mL | > 32 µg/mL | > 32 µg/mL | > 32 µg/mL | 16 µg/mL (≈ 33.3 µM) | > 32 µg/mL | 16 µg/mL (≈ 33.3 µM) | > 32 µg/mL | 32 µg/mL (≈ 66.6 µM) | 32 µg/mL (≈ 66.6 µM) | > 32 µg/mL | 32 µg/mL (≈ 66.6 µM) | 32 µg/mL (≈ 66.6 µM) | MIC (B. multivorans AU10047): 32 µg/mL (≈ 66.6 µM); MIC (B. multivorans AU19659): > 32 µg/mL
2 | C[C@H]1COc2c(N3CCN(C)CC3)c(F)cc3c(=O)c(C(=O)O)cn1c23 [levofloxacin] | 8 µg/mL (≈ 22.1 µM) | 4 µg/mL (≈ 11.1 µM) | 2 µg/mL (≈ 5.53 µM) | 4 µg/mL (≈ 11.1 µM) | 32 µg/mL (≈ 88.6 µM) | 8 µg/mL (≈ 22.1 µM) | 16 µg/mL (≈ 44.3 µM) | > 32 µg/mL | 8 µg/mL (≈ 22.1 µM) | 8 µg/mL (≈ 22.1 µM) | 32 µg/mL (≈ 88.6 µM) | 4 µg/mL (≈ 11.1 µM) | 16 µg/mL (≈ 44.3 µM) | 8 µg/mL (≈ 22.1 µM) | 16 µg/mL (≈ 44.3 µM) | 8 µg/mL (≈ 22.1 µM) | 32 µg/mL (≈ 88.6 µM) | > 32 µg/mL | > 32 µg/mL | > 32 µg/mL | MIC (B. multivorans AU10047): 8 µg/mL (≈ 22.1 µM); MIC (B. multivorans AU19659): 16 µg/mL (≈ 44.3 µM)
3 | C[C@@H](O)[C@H]1C(=O)N2C(C(=O)O)=C(S[C@@H]3CN[C@H](C(=O)N(C)C)C3)[C@H](C)[C@H]12 [meropenem] | 4 µg/mL (≈ 10.4 µM) | 4 µg/mL (≈ 10.4 µM) | 4 µg/mL (≈ 10.4 µM) | 4 µg/mL (≈ 10.4 µM) | 8 µg/mL (≈ 20.9 µM) | 2 µg/mL (≈ 5.22 µM) | 8 µg/mL (≈ 20.9 µM) | 32 µg/mL (≈ 83.4 µM) | 16 µg/mL (≈ 41.7 µM) | 4 µg/mL (≈ 10.4 µM) | 16 µg/mL (≈ 41.7 µM) | 4 µg/mL (≈ 10.4 µM) | 8 µg/mL (≈ 20.9 µM) | 2 µg/mL (≈ 5.22 µM) | 8 µg/mL (≈ 20.9 µM) | 4 µg/mL (≈ 10.4 µM) | 4 µg/mL (≈ 10.4 µM) | 2 µg/mL (≈ 5.22 µM) | 8 µg/mL (≈ 20.9 µM) | 4 µg/mL (≈ 10.4 µM) | MIC (B. multivorans AU10047): 16 µg/mL (≈ 41.7 µM); MIC (B. multivorans AU19659): 32 µg/mL (≈ 83.4 µM)
